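Method: 48-hour compound exposure of cells in 96-well plates, five concentrations, linear interpolation of endpoints. The concentration for 50% growth inhibition is given as GI50.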 Active and inactive are the calls of the source. No stated cut-off is given here; in the data, active = GI50 up to about 1.1 µM and inactive = higher.
Tests used:
Assay in all cases: growth of human tumour cells (NCI), 48 h
OVCAR-3 = tested on: OVCAR-3
ACHN = tested on: ACHN
SF-268 = tested on: SF-268
HT-29 = tested on: HT-29
SR = tested on: SR
HL-60 = tested on: HL-60
MDA-MB-435 = tested on: MDA-MB-435
CAKI-1 = tested on: CAKI-1
LOX IMVI = tested on: LOX IMVI
A549 = tested on: A549
SK-MEL-28 = tested on: SK-MEL-28
DU-145 = tested on: DU-145
MDA-MB-231 = tested on: MDA-MB-231
Hs-578T = tested on: Hs-578T
SNB-19 = tested on: SNB-19
MCF7 = tested on: MCF7
T47D = tested on: T47D

Row | Structure (SMILES) | GI50 (OVCAR-3) | GI50 (ACHN) | GI50 (SF-268) | GI50 (HT-29) | GI50 (SR) | GI50 (HL-60) | GI50 (MDA-MB-435) | GI50 (CAKI-1) | GI50 (LOX IMVI) | GI50 (A549) | GI50 (SK-MEL-28) | GI50 (DU-145) | GI50 (MDA-MB-231) | GI50 (Hs-578T) | GI50 (SNB-19) | GI50 (MCF7) | GI50 (T47D)
1 | N#Cc1c(-c2ccc(Cl)cc2)cc(-c2ccc(Nc3ccnc4cc(Cl)ccc34)cc2)[nH]c1=O | > 100 µM (inactive) | 32 µM (inactive) | 26.2 µM (inactive) | > 100 µM (inactive) | > 52.5 µM (inactive) | > 100 µM (inactive) | > 100 µM (inactive) | > 100 µM (inactive) | 31.6 µM (inactive) | > 100 µM (inactive) | > 100 µM (inactive) | 99.3 µM (inactive) | 34.4 µM (inactive) | 16.5 µM (inactive) | 27.7 µM (inactive) | > 100 µM (inactive) | > 100 µM (inactive)
2 | COc1ccc2[nH]c3c(C)c4ccnc(NCCCN(C)CCCN)c4c(C)c3c2c1 | 0.469 µM (active) | 0.119 µM (active) | 0.138 µM (active) | 0.042 µM (active) | 0.186 µM (active) | 0.12 µM (active) | 0.195 µM (active) | 0.156 µM (active) | 0.198 µM (active) | 0.0442 µM (active) | 0.719 µM (active) | 0.196 µM (active) | 0.0873 µM (active) | 0.0364 µM (active) | 0.213 µM (active) | 0.0263 µM (active) | 0.213 µM (active)
3 | Oc1ccc(/N=N/c2ccc(Cl)cc2)cc1 | 21.7 µM (inactive) | 12.9 µM (inactive) | 17.7 µM (inactive) | 18.3 µM (inactive) | 19.5 µM (inactive) | 4.38 µM (inactive) | 14.9 µM (inactive) | 14.4 µM (inactive) | 11.9 µM (inactive) | 14.2 µM (inactive) | 23 µM (inactive) | 16.4 µM (inactive) | 10.8 µM (inactive) | 28.8 µM (inactive) | 18 µM (inactive) | 17.7 µM (inactive) | 15 µM (inactive)
4 | CC(=O)O[C@H]1[C@@H](OC2CCCC2(c2ccccc2)c2ccccc2)O[N+]([O-])=C[C@@]12COCc1cc3c(cc12)OCO3 (some centres not stated) | 1.89 µM (inactive) | 7.85 µM (inactive) | 2.87 µM (inactive) | 2.77 µM (inactive) | 2.32 µM (inactive) | 3.24 µM (inactive) | 3.66 µM (inactive) | 4.32 µM (inactive) | 2.72 µM (inactive) | 8.57 µM (inactive) | 6.78 µM (inactive) | 6.32 µM (inactive) | 6.12 µM (inactive) | 2.65 µM (inactive) | 15.1 µM (inactive) | 6.38 µM (inactive) | 4.23 µM (inactive)
5 | C/C(=N\NC(=S)NCc1ccccc1)c1nc2cccnc2[nH]1 | 11.1 µM (inactive) | 3.57 µM (inactive) | 4.62 µM (inactive) | 3.48 µM (inactive) | 4.62 µM (inactive) | 3.71 µM (inactive) | 12.4 µM (inactive) | 6.52 µM (inactive) | 6.12 µM (inactive) | 6.38 µM (inactive) | 14.6 µM (inactive) | 4.84 µM (inactive) | 17.3 µM (inactive) | 18.3 µM (inactive) | 6.49 µM (inactive) | 3.53 µM (inactive) | 9.1 µM (inactive)
6 | O=C(c1ccccc1)N1CCC(Nc2nccs2)O1 (configuration not stated) | > 10 µM (inactive) | > 10 µM (inactive) | > 10 µM (inactive) | > 10 µM (inactive) | > 10 µM (inactive) | > 10 µM (inactive) | > 10 µM (inactive) | > 10 µM (inactive) | > 10 µM (inactive) | > 10 µM (inactive) | > 10 µM (inactive) | > 10 µM (inactive) | > 10 µM (inactive) | > 10 µM (inactive) | > 10 µM (inactive) | > 10 µM (inactive) | > 10 µM (inactive)

Source: ChEMBL document CHEMBL1201862, “PubChem BioAssay data set” (2004)
